According to US8592422B2, “Bicyclic triazole and pyrazole lactams as allosteric modulators of mGluR5 receptors” (Vanderbilt University, priority 2010, dated 2013):

Molecular target: T1, human mGluR5a receptor (Homo sapiens, UniProt P41594)
T1 construct: cDNA subcloned into pcDNA3.1(-)
Assay: Cell-based functional Ca2+ mobilization assay (FDSS), potentiation of glutamate EC20 response
Details: HEK cells transfected with human mGluR5 (H10H or H12H); in presence of EC20 glutamate
Method: Human embryonic kidney (HEK) cells transfected with rat mGluR5 were plated in clear bottom assay plates for assay in a Functional Drug Screening System (FDSS). In the alternative assay, HEK cells transfected with human mGluR5 were plated for assay in the FDSS. In some cases the HEK cells transfected with human mGluR5 were the H10H cell line. Alternatively, the HEK cells transfected with human mGluR5 were the H12H cell line. […] The cells were loaded with a Ca^2+-sensitive fluorescent dye (e.g., Fluo-4), and the plates were washed and placed in the FDSS instrument. After establishment of a fluorescence baseline for twelve seconds, the compounds of the present invention were added to the cells, and the response in cells was measured. Alternatively, in various further aspects, after establishment of a fluorescence baseline for about three seconds, the compounds of the present invention were added to the cells, and the response in cells was measured. Five minutes later, an mGluR5 agonist (e.g., glutamate, 3,5-dihydroxyphenylglycine, or quisqualate) was added to the cells, and the response of the cells was measured.
The above described assay operated in two modes. In the first mode, a range of concentrations of the present compounds were added to cells, followed by a single fixed concentration of agonist. If a compound acted as a potentiator, an EC50 value for potentiation and a maximum extent of potentiation by the compound at this concentration of agonist was determined by non-linear curve fitting. In the second mode, several fixed concentrations of the present compounds were added to various wells on a plate, followed by a range of concentrations of agonist for each concentration of present compound; the EC50 values for the agonist at each concentration of compound were determined by non-linear curve fitting. A decrease in the EC50 value of the agonist with increasing concentrations of the present compounds (a leftward shift of the agonist concentration-response curve) is an indication of the degree of mGluR5 potentiation at a given concentration of the present compound. An increase in the EC50 value of the agonist with increasing concentrations of the present compounds (a rightward shift of the agonist concentration-response curve) is an indication of the degree of mGluR5 antagonism at a given concentration of the present compound. The second mode also indicates whether the present compounds also affect the maximum response to mGluR5 to agonists.
The mGluR5 activity was determined using the metabotropic glutamate receptor activity assays in human embryonic kidney cells as described herein, wherein the human embryonic kidney cells were transfected with human mGluR5. The compounds in Table 1 were synthesized with methods identical or analogous to those shown herein. The requisite starting materials were commercially available, described in the literature, or readily synthesized by one skilled in the art of organic synthesis. The compound number given in Table I corresponds to the compound number in Table II and the structure given therein.
Human mGluR5a cDNA in pCMV6-XL6 mammalian expression plasmid was purchased from OriGene Technologies, Inc. (catalogue number SC326357) and subcloned into pcDNA3.1(−). Human embryonic kidney (HEK) 293A cells were then transfected with human mGluR5a pcDNA3.1(−) using LipofectAmine-2000 (Invitrogen) and monoclones were selected and tested for functional response using a Ca^2+ mobilization assay. Monoclones were named for the species (“H” for human) plus the location on the plate (e.g. “10H”).
HEK cells transfected with the human mGluR5a receptor (H10H or H12H cell line) were plated at 15,000 cells/well in clear-bottomed poly-D-lysine-coated assay plates (BD Falcon) in glutamate-glutamine-free growth medium and incubated overnight at 37° C. and 5% CO2.

T1 sequence (P41594 21-1180 isoform P41594-2 limits assumed): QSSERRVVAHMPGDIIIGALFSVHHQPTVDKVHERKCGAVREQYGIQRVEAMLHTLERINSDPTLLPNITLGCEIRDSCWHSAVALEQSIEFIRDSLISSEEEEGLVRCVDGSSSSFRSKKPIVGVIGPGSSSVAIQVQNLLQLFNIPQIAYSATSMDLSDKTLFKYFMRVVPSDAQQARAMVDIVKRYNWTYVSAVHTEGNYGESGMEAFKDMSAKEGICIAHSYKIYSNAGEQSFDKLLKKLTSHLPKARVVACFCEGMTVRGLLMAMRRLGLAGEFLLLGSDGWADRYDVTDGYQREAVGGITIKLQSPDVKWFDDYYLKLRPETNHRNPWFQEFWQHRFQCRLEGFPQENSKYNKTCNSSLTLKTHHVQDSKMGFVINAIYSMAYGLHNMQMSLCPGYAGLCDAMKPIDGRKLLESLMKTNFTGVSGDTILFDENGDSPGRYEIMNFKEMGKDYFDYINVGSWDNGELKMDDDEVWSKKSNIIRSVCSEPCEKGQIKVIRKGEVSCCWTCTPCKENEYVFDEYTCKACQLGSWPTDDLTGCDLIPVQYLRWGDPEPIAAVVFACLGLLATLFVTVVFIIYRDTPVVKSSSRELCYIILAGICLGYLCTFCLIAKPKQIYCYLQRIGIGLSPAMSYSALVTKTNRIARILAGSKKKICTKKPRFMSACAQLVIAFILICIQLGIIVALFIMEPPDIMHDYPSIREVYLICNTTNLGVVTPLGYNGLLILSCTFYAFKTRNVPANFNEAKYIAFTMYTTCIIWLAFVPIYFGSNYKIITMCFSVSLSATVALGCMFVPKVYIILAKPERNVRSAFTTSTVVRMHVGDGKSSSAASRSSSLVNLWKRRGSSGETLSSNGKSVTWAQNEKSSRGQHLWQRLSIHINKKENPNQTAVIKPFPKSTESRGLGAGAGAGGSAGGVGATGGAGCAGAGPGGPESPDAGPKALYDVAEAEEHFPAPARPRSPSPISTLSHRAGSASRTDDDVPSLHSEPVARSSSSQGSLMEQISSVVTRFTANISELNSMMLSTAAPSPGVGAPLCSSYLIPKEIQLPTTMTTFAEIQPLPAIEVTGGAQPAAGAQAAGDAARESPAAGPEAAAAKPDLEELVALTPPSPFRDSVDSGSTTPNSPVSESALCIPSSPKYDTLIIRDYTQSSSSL

| Compound | pEC50 |
| --- | --- |
| COCc1ccccc1N1CCn2nc(COc3ccccc3)cc2C1=O [Example 63] | 6.37 |
| O=C1c2cc(COc3ccccc3)nn2CCN1c1cccc(C2CC2)n1 [Example 66] | 7.03 |
| COc1nc(N2CCn3nc(COc4ccccc4)cc3C2=O)ccc1F [Example 73] | 7.64 |
| O=C1c2cc(COc3ccccc3)nn2CCN1c1cccc(CCF)n1 [Example 75] | 6.69 |
| O=C1c2cc(COc3ccccc3)nn2CCN1c1ncccn1 [Example 77] | <5.00 |
| COc1cccnc1N1CCn2nc(COc3ccccc3)cc2C1=O [Example 79] | 5.66 |
| O=C1c2cc(COc3ccccc3)nn2CCN1c1ncccc1F [Example 81] | 6.26 |
| Cc1ccnc(N2CCn3nc(COc4ccccc4)cc3C2=O)n1 [Example 82] | 5.81 |
| Cc1cc(F)cnc1N1CCn2nc(COc3ccccc3)cc2C1=O [Example 86] | 6.69 |
| Cc1ccc(F)c(N2CCn3nc(COc4ccccc4)cc3C2=O)n1 [Example 88] | 6.75 |
| COc1ccc(N2CCn3nc(COc4ccccc4)cc3C2=O)nn1 [Example 89] | <5.00 |
| COc1nc(N2CCn3nc(COc4ccccc4)cc3C2=O)ncc1F [Example 91] | 7.19 |
| Cc1cncc(N2CCn3nc(COc4ccccc4)cc3C2=O)n1 [Example 92] | 6.51 |
| Cc1cnnc(N2CCn3nc(COc4ccccc4)cc3C2=O)c1 [Example 93] | <4.52 |
| Cc1nccc(N2CCn3nc(COc4ccccc4)cc3C2=O)n1 [Example 94] | 6.29 |
| N#Cc1cccc(N2CCn3nc(COc4ccccc4)cc3C2=O)n1 [Example 95] | 6.82 |

Further lines, results first:

| pEC50 | Compound |
| --- | --- |
| 7.01 | COc1nc(N2CCn3nc(COc4ccccc4)cc3C2=O)ncc1C [Example 97] |
| 6.13 | COc1nc(C)cc(N2CCn3nc(COc4ccccc4)cc3C2=O)n1 [Example 98] |
| 6.53 | COc1cnc(N2CCn3nc(COc4ccccc4)cc3C2=O)cn1 [Example 101] |
| 7.03 | COc1nccnc1N1CCn2nc(COc3ccccc3)cc2C1=O [Example 103] |
| 7.13 | COc1ccc(C)c(N2CCn3nc(COc4ccccc4)cc3C2=O)n1 [Example 109] |
| 6.70 | COc1nccc(N2CCn3nc(COc4ccccc4)cc3C2=O)n1 [Example 110] |
| 6.98 | COc1cncc(N2CCn3nc(COc4ccccc4)cc3C2=O)n1 [Example 112] |

Same assay, conditions: HEK cells transfected with human mGluR5 (H10H or H12H); in presence of EC20 glutamate; read-out: EC50

| Compound | EC50 [nM] |
| --- | --- |
| COCc1ccccc1N1CCn2nc(COc3ccccc3)cc2C1=O [Example 63] | 430 |
| O=C1c2cc(COc3ccccc3)nn2CCN1c1cccc(C2CC2)n1 [Example 66] | 93 |
| COc1nc(N2CCn3nc(COc4ccccc4)cc3C2=O)ccc1F [Example 73] | 23 |
| O=C1c2cc(COc3ccccc3)nn2CCN1c1cccc(CCF)n1 [Example 75] | 204 |
| O=C1c2cc(COc3ccccc3)nn2CCN1c1ncccn1 [Example 77] | > 10000 |
| COc1cccnc1N1CCn2nc(COc3ccccc3)cc2C1=O [Example 79] | 2190 |
| O=C1c2cc(COc3ccccc3)nn2CCN1c1ncccc1F [Example 81] | 550 |
| Cc1ccnc(N2CCn3nc(COc4ccccc4)cc3C2=O)n1 [Example 82] | 1550 |
| Cc1cc(F)cnc1N1CCn2nc(COc3ccccc3)cc2C1=O [Example 86] | 204 |
| Cc1ccc(F)c(N2CCn3nc(COc4ccccc4)cc3C2=O)n1 [Example 88] | 178 |
| COc1ccc(N2CCn3nc(COc4ccccc4)cc3C2=O)nn1 [Example 89] | > 10000 |
| COc1nc(N2CCn3nc(COc4ccccc4)cc3C2=O)ncc1F [Example 91] | 65 |
| Cc1cncc(N2CCn3nc(COc4ccccc4)cc3C2=O)n1 [Example 92] | 309 |
| Cc1cnnc(N2CCn3nc(COc4ccccc4)cc3C2=O)c1 [Example 93] | > 30200 |
| Cc1nccc(N2CCn3nc(COc4ccccc4)cc3C2=O)n1 [Example 94] | 513 |
| N#Cc1cccc(N2CCn3nc(COc4ccccc4)cc3C2=O)n1 [Example 95] | 150 |

Continued, values first:

| EC50 [nM] | Compound |
| --- | --- |
| 98 | COc1nc(N2CCn3nc(COc4ccccc4)cc3C2=O)ncc1C [Example 97] |
| 741 | COc1nc(C)cc(N2CCn3nc(COc4ccccc4)cc3C2=O)n1 [Example 98] |
| 295 | COc1cnc(N2CCn3nc(COc4ccccc4)cc3C2=O)cn1 [Example 101] |
| 93 | COc1nccnc1N1CCn2nc(COc3ccccc3)cc2C1=O [Example 103] |
| 74 | COc1ccc(C)c(N2CCn3nc(COc4ccccc4)cc3C2=O)n1 [Example 109] |
| 200 | COc1nccc(N2CCn3nc(COc4ccccc4)cc3C2=O)n1 [Example 110] |
| 105 | COc1cncc(N2CCn3nc(COc4ccccc4)cc3C2=O)n1 [Example 112] |

Same assay, conditions: maximum % effect in concentration-response curve, as percent of response to maximally effective glutamate

| Compound | Emax (%) |
| --- | --- |
| COCc1ccccc1N1CCn2nc(COc3ccccc3)cc2C1=O [Example 63] | 68 |
| O=C1c2cc(COc3ccccc3)nn2CCN1c1cccc(C2CC2)n1 [Example 66] | 72 |
| COc1nc(N2CCn3nc(COc4ccccc4)cc3C2=O)ccc1F [Example 73] | 67 |
| O=C1c2cc(COc3ccccc3)nn2CCN1c1cccc(CCF)n1 [Example 75] | 68 |
| O=C1c2cc(COc3ccccc3)nn2CCN1c1ncccn1 [Example 77] | 42 |
| COc1cccnc1N1CCn2nc(COc3ccccc3)cc2C1=O [Example 79] | 48 |
| O=C1c2cc(COc3ccccc3)nn2CCN1c1ncccc1F [Example 81] | 67 |
| Cc1ccnc(N2CCn3nc(COc4ccccc4)cc3C2=O)n1 [Example 82] | 61 |
| Cc1cc(F)cnc1N1CCn2nc(COc3ccccc3)cc2C1=O [Example 86] | 73 |
| Cc1ccc(F)c(N2CCn3nc(COc4ccccc4)cc3C2=O)n1 [Example 88] | 72 |
| COc1ccc(N2CCn3nc(COc4ccccc4)cc3C2=O)nn1 [Example 89] | 75 |
| COc1nc(N2CCn3nc(COc4ccccc4)cc3C2=O)ncc1F [Example 91] | 71 |
| Cc1cncc(N2CCn3nc(COc4ccccc4)cc3C2=O)n1 [Example 92] | 71 |
| Cc1cnnc(N2CCn3nc(COc4ccccc4)cc3C2=O)c1 [Example 93] | 29 |
| Cc1nccc(N2CCn3nc(COc4ccccc4)cc3C2=O)n1 [Example 94] | 65 |
| N#Cc1cccc(N2CCn3nc(COc4ccccc4)cc3C2=O)n1 [Example 95] | 54 |

Other lines, results leading:

| Emax (%) | Compound |
| --- | --- |
| 68 | COc1nc(N2CCn3nc(COc4ccccc4)cc3C2=O)ncc1C [Example 97] |
| 63 | COc1nc(C)cc(N2CCn3nc(COc4ccccc4)cc3C2=O)n1 [Example 98] |
| 78 | COc1cnc(N2CCn3nc(COc4ccccc4)cc3C2=O)cn1 [Example 101] |
| 72 | COc1nccnc1N1CCn2nc(COc3ccccc3)cc2C1=O [Example 103] |
| 63 | COc1ccc(C)c(N2CCn3nc(COc4ccccc4)cc3C2=O)n1 [Example 109] |
| 68 | COc1nccc(N2CCn3nc(COc4ccccc4)cc3C2=O)n1 [Example 110] |
| 69 | COc1cncc(N2CCn3nc(COc4ccccc4)cc3C2=O)n1 [Example 112] |
